According to article PMC5669199, “CM352 Reduces Brain Damage and Improves Functional Recovery in a Rat Model of Intracerebral Hemorrhage” (Journal of the American Heart Association: Cardiovascular …, 2017):

How the values were obtained:
[1] = Plasma protein binding; assay type: in vitro ADME; details: rat, read-out: Plasma prot binding (% unbound)
[2] = test system: tissue‐type plasminogen activator–induced fibrinolysis in mouse whole blood; assay: Whole blood clot formation and lysis assay (ROTEM thromboelastometry), mouse blood; assay type: biochemical; details: tPA‐induced fibrinolysis, read-out: effective concentration to delay lysis time by 50%
Procedure: Citrated blood samples from (n=4) rats (Sprague Dawley) and (n=16) mice ([…], Harlan Iberica) were assayed with a ROTEM analyzer (Pentapharm GmbH, Munich, Germany) as previously described.20 In a prewarmed cuvette and holder we pipetted 1 μL tissue-type plasminogen activator (150 000 U/mL), 20 μL Start-tem reagent (Pentapharm GmbH), 20 μL In-tem reagent (Pentapharm GmbH), 3 μL DMSO (SIGMA) or test compounds in DMSO, and 300 μL prewarmed citrated blood. The cup holder containing the sample mixture was placed immediately on the appropriate channel. Measurements were recorded for 60 minutes to allow clot formation and lysis, and results are expressed as effective concentration to delay lysis time by 50%.

[3] = test system: rat model of collagenase‐induced ICH; assay: Hematoma and lesion volume by T2‐weighted MRI in ICH rat model; assay type: in vivo
Procedure: Glucose levels were analyzed before surgery (mean 144.3±22.1 mg/dL). Rats were placed in a stereotaxic frame (Stoelting Co, Wood Dale, IL) under sevoflurane anesthesia. After drilling of a small burr hole, 1 μL of saline containing 0.2 U/μL bacterial collagenase type VII (Sigma‐Aldrich Corp, St. Louis, MO) was injected into the right striatum (0.6 mm anterior to bregma, −3.0 mm lateral and 5.5 mm depth) using a Hamilton syringe with a 30 G needle. Injections took place over a 10‐minute period, and the needle remained in place for additional 10 minutes before removal (1 mm/min). The burr hole was filled with bone wax (Ethicon, Somerville, NJ), and the scalp incision was closed with sutures.
. The same experimental design and setting were used to assess the effect of late (3 hours) CM352 treatment. Required sample size was calculated from previous studies using the same model21 in order to be able to detect a 25% effect size on hematoma growth versus controls (2‐tailed t test). Six animals per group are required to detect this difference with a power (1−β) of 0.8 and α=0.05. N was calculated using EPIDAT software (http://www.sergas.es/Saude-publica/EPIDAT-4-2). All treatments were given as a single bolus (jugular) 60 minutes after the collagenase injection for ICH induction. […]
Gradient‐echo pilot scans were performed at the beginning of each imaging session for accurate positioning of the animal inside the magnet bore. Multislice axial T2‐weighted imaging was performed at baseline (1 hour after IHC induction), and at 3 hours, 24 hours, and 14 days after ICH. T2‐weighted images were acquired using a RARE (factor n=4) sequence with the following acquisition parameters: field‐of‐view 19.2×19.2 mm^2, image matrix 192×192 (isotropic in‐plane resolution of 0.1×0.1 mm/pixel), 18 consecutive slices of 0.5 mm thickness.
Magnetic resonance data analysis was performed using Para Vision (Bruker Medical, Ettlingen, Germany), and images were processed with ImageJ (W. S. Rasband, National Institutes of Health, Bethesda, MD: http://rsb.info.nih.gov/ij). The analyzed region of interest was the hematoma and lesion region. Hematoma volumes (basal and 3 and 24 hours) as well as lesion volume at day 14 were manually traced from T2 maps, and the mean signal intensity was measured by 2 well‐trained imaging analysts blind to the experimental conditions.

[4] = test system: interleukin‐6; assay: Plasma interleukin‐6 ELISA after ICH; assay type: in vivo, rat; details: 1 mg/kg iv 1 hour after collagenase; 3 hours, P<0.05 vs control
Procedure: Blood samples (0.5 mL) were drawn from the tail vein before surgery, immediately after surgery, and at 1 hour, 3 hours, 24 hours, and 14 days. Citrate or EDTA plasma was obtained by centrifugation, and samples were stored at −80°C. Enzyme‐linked immunosorbent assay was used to measure interleukin‐6 (IL‐6, ref. KRC0061, Life Technologies, Thermo Fisher Scientific, Waltham, MA), cellular fibronectin (ref. MBS007311, MyBioSource, San Diego, CA), and thrombin‐antithrombin complex (Enzygnost TAT, ref. OWMG15, Siemens Healthcare, Erlangen, Germany) in plasma, as biomarkers of inflammation, cellular damage, and hypercoagulability, respectively. The intra‐assay and interassay coefficients of variation for all molecular markers were <10%.

[5] = test system: apoptotic cells in perihematomal area; assay: TUNEL analysis of apoptotic cells in perihematomal area; assay type: in vivo, rat; details: 14 days after ICH, n=3
Procedure: After the completion of the neuroimaging study, 14 days after ICH, animals were euthanized by an overdose of anesthetic (sevoflurane 8%) and perfused with PBS and 4% formaldehyde. The brain was removed, axially sliced (2 mm thick), fixed in 4% formaldehyde (4 hours), transferred to 20% sucrose in PBS (4°C), included in optimal cutting temperature compound (Sakura Finetek, Torrance, CA), and stored at −80°C. Slices were cut into 8‐μm‐thick slices using a cryostat (Sakura Finetek Europe BV, Leiden, The Netherlands).
Brain slices were dried at 38°C for 3 hours, and the optimal cutting temperature compound was then removed by washing the slices twice in PBS. Antigen retrieval was performed by immersion of slices in a thermal bath of citrate buffer (pH 6.0) for 20 minutes at 99°C. To detect apoptotic cells, a terminal deoxynucleotidyl transferase dUTP nick end labeling assay was performed. […] Slices were mounted (Polysciences, Eppelheim, Germany) and photographed in a Leica DMI 6000 B microscope with Leica Application Suite Advance Fluorescence software, version 1.0.0 (LAS AF; Leica Microsystems, Wetzlar, Germany).
A quantitative analysis of terminal deoxynucleotidyl transferase dUTP nick end labeling was performed using 3 animals from each group. […] Positive nuclei were counted manually.

[6] = 1 mg/kg 3 hours after collagenase, 5 hours
[7] = 1 mg/kg 3 hours after collagenase, 24 hours
[8] = 1 mg/kg iv 1 hour after collagenase, 3 hours
[9] = 1 mg/kg iv 1 hour after collagenase, 24 hours

For `CNC(=O)c1ccc(Oc2ccc(S(=O)(=O)[C@]3(C(=O)NO)CCC4(CCNCC4)C3)cc2)cc1` [CM352, 4‐[4‐[[(3R)‐3‐(Hydroxycarbamoyl)‐8‐azaspiro[4.5]decan‐3‐yl]sulfonyl]phenoxy]‐N‐methylbenzamide], the fraction unbound [1] was 0.4, the EC50 [2] was 200 nM and the hematoma expansion [3, 6] was 115±17%. The “reduction of hematoma expansion versus control” value [3, 6] was 62%, the hematoma expansion [3, 7] was 114±50% and the “reduction of hematoma expansion versus control” value [3, 7] was 58%. For the same compound, the “lesion size versus control” value ([3]; 1 mg/kg 3 hours after collagenase, up to day 14, P<0.05) was “differences in lesion size were patent between the groups”, the “hematoma volume after late administration” value ([3]; 1 mg/kg 3 hours after collagenase, versus control P<0.01) was “hematoma stabilized” and the hematoma expansion [3, 8] was 200±86%. The “reduction of hematoma expansion versus control” value [3, 8] was 35%, the “reduction in hematoma volume compared with controls” value ([3]; 1 mg/kg iv 1 hour after collagenase, 3 hours after ICH) was 29% and the hematoma expansion [3, 9] was 133±63%. For the same compound, the “reduction of hematoma expansion versus control” value [3, 9] was 56%, the “reduction in hematoma volume compared with controls” value ([3]; 1 mg/kg iv 1 hour after collagenase, 24 hours after ICH) was 46% and the “lesion volume smaller than controls” value ([3]; 1 mg/kg iv 1 hour after collagenase, 14 days) was 48%. The “hematoma volume at 1 hour (basal)” value ([3]; early‐treatment experiment, 1 hour after collagenase, before treatment, n=6) was 23.2±3.5 mm^3, the “hematoma volume at 1 hour” value ([3]; late‐treatment experiment, 1 hour after collagenase, before treatment, n=6) was 16.0±1.9 mm^3 and the “hematoma volume at 3 hours” value ([3]; late‐treatment experiment, 3 hours after collagenase, time of treatment, n=6) was 39.8±6.7 mm^3. For the same compound, the “circulating IL‐6 levels” value [4] was “significant reduction” and the “apoptosis (TUNEL‐positive cells) in the perihematomal area versus control” value [5] was “No effects on apoptosis”.
